According to patent publication US20230011869A1 (Hoffmann-La Roche Inc., priority 2018, published 2023):
Where a name gives a salt, the structure may show the parent alone.

Each compound was assayed on Acinetobacter baumannii ATCC17978 (assay: Antimicrobial susceptibility testing: 90% growth inhibitory concentration (IC90) determination, Iso-Sensitest broth). Details: 90% growth inhibitory concentration, Acinetobacter baumannii ATCC17978, Iso-Sensitest broth, OD 600 nm over 16 h; read-out: ATCC17978 IC90.
Type: cell-based
How it was run: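 A. baumannii ATCC17978 grown in Iso-Sensitest broth across 10 compound concentrations at 35±2 °C.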
Work on `Cc1cc(Nc2nccn3c(-c4ccc(OC(F)F)cc4)cnc23)ccc1C(=O)N1CCNCC1` [Example 129, [4-[[3-[4-(difluoromethoxy)phenyl]imidazo[1,2-a]pyrazin-8-yl]amino]-2-methyl-phenyl]-piperazin-1-yl-methanone hydrochloride] yielded an IC90 of 910 nM.
Work on `COc1ccc(-c2cnc3c(Nc4ccc(C(=O)N5CCNCC5)c(C)c4)nccn23)cc1F` [Example 130, [4-[[3-(3-fluoro-4-methoxy-phenyl)imidazo[1,2-a]pyrazin-8-yl]amino]-2-methyl-phenyl]-piperazin-1-yl-methanone hydrochloride] yielded an IC90 of 430 nM.
`Cc1cc(Nc2nccn3c(-c4ccc(OC(F)F)cc4)cnc23)ccc1C(=O)N1CCN(C(=O)N2CCOC(CN(C)C)C2)CC1` (stereo not shown) [Example 132, [4-[[3-[4-(difluoromethoxy)phenyl]imidazo[1,2-a]pyrazin-8-yl]amino]-2-methyl-phenyl]-[4-[2-[(dimethylamino)methyl]morpholine-4-carbonyl]piperazin-1-yl]methanone] showed an IC90 of 300 nM.
`Cc1cc(Nc2nccn3c(-c4ccc(OC(F)F)cc4)cnc23)ccc1C(=O)N1CCN(C(=O)N2CCNC(CO)C2)CC1` (stereo not shown) [Example 133, [4-[[3-[4-(difluoromethoxy)phenyl]imidazo[1,2-a]pyrazin-8-yl]amino]-2-methyl-phenyl]-[4-[3-(hydroxymethyl)piperazine-1-carbonyl]piperazin-1-yl]methanone hydrochloride] gave an IC90 of 230 nM.
Compound `Cc1cc(Nc2nccn3c(-c4ccc(OC(F)F)cc4)cnc23)ccc1C(=O)N1CCN(C(=O)N2CCOC(CN)C2)CC1` (stereo not shown) [Example 134, [4-[2-(aminomethyl)morpholine-4-carbonyl]piperazin-1-yl]-[4-[[3-[4-(difluoromethoxy)phenyl]imidazo[1,2-a]pyrazin-8-yl]amino]-2-methyl-phenyl]methanone hydrochloride] has an IC90 of 260 nM.
In the case of `Cc1cc(Nc2nccn3c(-c4ccc(OC(F)F)cc4)cnc23)ccc1C(=O)N1CCN(C(=O)N(C)C)CC1` [Example 135, 4-[4-[[3-[4-(difluoromethoxy)phenyl]imidazo[1,2-a]pyrazin-8-yl]amino]-2-methyl-benzoyl]-N,N-dimethyl-piperazine-1-carboxamide], the IC90 was 280 nM.
`CNCC1CN(C(=O)N2CCN(C(=O)c3ccc(Nc4nccn5c(-c6ccc(OC(F)F)cc6)cnc45)cc3C)CC2)CCO1` (stereo not shown) [Example 136, [4-[[3-[4-(difluoromethoxy)phenyl]imidazo[1,2-a]pyrazin-8-yl]amino]-2-methyl-phenyl]-[4-[2-(methylaminomethyl)morpholine-4-carbonyl]piperazin-1-yl]methanone hydrochloride] showed an IC90 of 270 nM.
With `Cc1cc(Nc2nccn3c(-c4ccc(OCC#N)c(F)c4F)cnc23)ccc1C(=O)N1CCN(C(=O)N2CCNCC2)CC1` [Example 137, 2-[2,3-difluoro-4-[8-[3-methyl-4-[4-(piperazine-1-carbonyl)piperazine-1-carbonyl]anilino]imidazo[1,2-a]pyrazin-3-yl]phenoxy]acetonitrile formate] the IC90 was 130 nM.
In the case of `Cc1cc(Nc2nccn3c(-c4ccc(OC(F)F)cc4)cnc23)ccc1C(=O)N1CCN(C(=O)N[C@H]2CCNC2)CC1` [Example 138, 4-[4-[[3-[4-(difluoromethoxy)phenyl]imidazo[1,2-a]pyrazin-8-yl]amino]-2-methyl-benzoyl]-N-[(3S)-pyrrolidin-3-yl]piperazine-1-carboxamide hydrochloride], the IC90 was 110 nM.
In the case of `Cc1cc(Nc2nccn3c(-c4ccc(OCC#N)c(F)c4F)cnc23)ccc1C(=O)N1CCN(C(=O)NCCN)CC1` [Example 139, N-(2-aminoethyl)-4-[4-[[3-[4-(cyanomethoxy)-2,3-difluoro-phenyl]imidazo[1,2-a]pyrazin-8-yl]amino]-2-methyl-benzoyl]piperazine-1-carboxamide formate], the IC90 was 130 nM.
`COc1ccc(-c2cnc3c(Nc4ccc(C(=O)N5CCN(C(=O)N6CCO[C@H](CN)C6)CC5)c(C)c4)nccn23)c(F)c1F` [Example 140, [4-[(2R)-2-(aminomethyl)morpholine-4-carbonyl]piperazin-1-yl]-[4-[[3-(2,3-difluoro-4-methoxy-phenyl)imidazo[1,2-a]pyrazin-8-yl]amino]-2-methyl-phenyl]methanone formate] showed an IC90 of 190 nM.
`Cc1cc(Nc2nccn3c(-c4ccc(OC(F)F)cc4)cnc23)ccc1C(=O)N1CCN(C(=O)N[C@@H]2CCNC2)CC1` [Example 142, 4-[4-[[3-[4-(difluoromethoxy)phenyl]imidazo[1,2-a]pyrazin-8-yl]amino]-2-methyl-benzoyl]-N-[(3R)-pyrrolidin-3-yl]piperazine-1-carboxamide hydrochloride] was tested, and the IC90 was 150 nM.
`Cc1cc(Nc2nccn3c(-c4ccc(OC(F)F)cc4)cnc23)ccc1C(=O)N1CCN(C(=O)NC2CCNCC2)CC1` [Example 143, 4-[4-[[3-[4-(difluoromethoxy)phenyl]imidazo[1,2-a]pyrazin-8-yl]amino]-2-methyl-benzoyl]-N-(4-piperidyl)piperazine-1-carboxamide hydrochloride] gave an IC90 of 160 nM.
`Cc1cc(Nc2nccn3c(-c4ccc(OC(F)F)cc4)cnc23)ccc1C(=O)N1CCN(C(=O)NCC2CNC2)CC1` [Example 144, N-(azetidin-3-ylmethyl)-4-[4-[[3-[4-(difluoromethoxy)phenyl]imidazo[1,2-a]pyrazin-8-yl]amino]-2-methyl-benzoyl]piperazine-1-carboxamide formate] gave an IC90 of 130 nM.
`COc1ccc(-c2cnc3c(Nc4ccc(C(=O)N5CCN(C(=O)N6CCO[C@@H](CN)C6)CC5)c(C)c4)nccn23)c(F)c1F` [Example 145, [4-[(2S)-2-(aminomethyl)morpholine-4-carbonyl]piperazin-1-yl]-[4-[[3-(2,3-difluoro-4-methoxy-phenyl)imidazo[1,2-a]pyrazin-8-yl]amino]-2-methyl-phenyl]methanone formate] was tested, and the IC90 was 170 nM.
`Cc1cc(Nc2nccn3c(-c4ccc(OC(F)F)cc4)cnc23)ccc1C(=O)N1CCN(C(=O)N2CCO[C@@H](CN)C2)CC1` [Example 146, [4-[(2S)-2-(aminomethyl)morpholine-4-carbonyl]piperazin-1-yl]-[4-[[3-[4-(difluoromethoxy)phenyl]imidazo[1,2-a]pyrazin-8-yl]amino]-2-methyl-phenyl]methanone formate] gave an IC90 of 300 nM.
With `COc1ccc(-c2cnc3c(Nc4ccc(C(=O)N5CCN(C(=O)N[C@@H](C)CN)CC5)c(C)c4)nccn23)c(F)c1F` [Example 147, N-[(1S)-2-amino-1-methyl-ethyl]-4-[4-[[3-(2,3-difluoro-4-methoxy-phenyl)imidazo[1,2-a]pyrazin-8-yl]amino]-2-methyl-benzoyl]piperazine-1-carboxamide hydrochloride] the IC90 was 210 nM.
`COc1ccc(-c2cnc3c(Nc4ccc(C(=O)N5CCN(C(=O)N[C@H](C)CN)CC5)c(C)c4)nccn23)c(F)c1F` [Example 148, N-[(1R)-2-amino-1-methyl-ethyl]-4-[4-[[3-(2,3-difluoro-4-methoxy-phenyl)imidazo[1,2-a]pyrazin-8-yl]amino]-2-methyl-benzoyl]piperazine-1-carboxamide hydrochloride] was tested, and the IC90 was 210 nM.
`COc1ccc(-c2cnc3c(Nc4ccc(C(=O)N5CCN(C(=O)NC[C@H](C)N)CC5)c(C)c4)nccn23)c(F)c1F` [Example 149, N-[(2S)-2-aminopropyl]-4-[4-[[3-(2,3-difluoro-4-methoxy-phenyl)imidazo[1,2-a]pyrazin-8-yl]amino]-2-methyl-benzoyl]piperazine-1-carboxamide] was tested, and the IC90 was 180 nM.
In the case of `Cc1cc(Nc2nccn3c(-c4ccc(OC(F)F)cc4)cnc23)ccc1C(=O)N1CCN(C(=O)NC[C@@H](C)N)CC1` [Example 150, N-[(2R)-2-aminopropyl]-4-[4-[[3-[4-(difluoromethoxy)phenyl]imidazo[1,2-a]pyrazin-8-yl]amino]-2-methyl-benzoyl]piperazine-1-carboxamide hydrochloride], the IC90 was 140 nM.
With `Cc1cc(Nc2nccn3c(-c4ccc(OC(F)F)cc4)cnc23)ccc1C(=O)N1CCN(C(=O)NC[C@H](C)N)CC1` [Example 151, N-[(2S)-2-aminopropyl]-4-[4-[[3-[4-(difluoromethoxy)phenyl]imidazo[1,2-a]pyrazin-8-yl]amino]-2-methyl-benzoyl]piperazine-1-carboxamide hydrochloride] the IC90 was 140 nM.
Work on `COc1ccc(-c2cnc3c(Nc4ccc(C(=O)N5CCN(C(=O)NC[C@@H](C)N)CC5)c(C)c4)nccn23)c(F)c1F` [Example 152, N-[(2R)-2-aminopropyl]-4-[4-[[3-(2,3-difluoro-4-methoxy-phenyl)imidazo[1,2-a]pyrazin-8-yl]amino]-2-methyl-benzoyl]piperazine-1-carboxamide hydrochloride] yielded an IC90 of 110 nM.
`COc1ccc(-c2cnc3c(Nc4ccc(C(=O)N5CCN(C(=O)NC[C@@H](C)N)CC5)c(C)c4)nccn23)c(Cl)c1F` [Example 155, N-[(2R)-2-aminopropyl]-4-[4-[[3-(2-chloro-3-fluoro-4-methoxy-phenyl)imidazo[1,2-a]pyrazin-8-yl]amino]-2-methyl-benzoyl]piperazine-1-carboxamide formate] was tested, and the IC90 was 150 nM.
Compound `COc1ccc(-c2cnc3c(Nc4ccc(C(=O)N5CCN(C(=O)NC[C@H](C)N)CC5)c(C)c4)nccn23)c(Cl)c1F` [Example 156, N-[(2S)-2-aminopropyl]-4-[4-[[3-(2-chloro-3-fluoro-4-methoxy-phenyl)imidazo[1,2-a]pyrazin-8-yl]amino]-2-methyl-benzoyl]piperazine-1-carboxamide formate] has an IC90 of 180 nM.

Same assay, conditions: Acinetobacter baumannii, ATCC17978, 16 h, read-out: ATCC17978 IC90, 90% growth inhibitory concentration, Acinetobacter baumannii ATCC17978, Iso-Sensitest broth, OD 600 nm over 16 h
`Cc1cc(Nc2nccn3c(-c4ccc(OC(F)F)cc4)cnc23)ccc1C(=O)N1CCN(C(=O)N2CCN(C)CC2)CC1` [Example 128, [4-[[3-[4-(difluoromethoxy)phenyl]imidazo[1,2-a]pyrazin-8-yl]amino]-2-methyl-phenyl]-[4-(4-methylpiperazine-1-carbonyl)piperazin-1-yl]methanone formate] was tested, and the IC90 was 190 nM.
